Data reported in paper PMC5802374 (Cell, 2018).
“And” between values parts separate entries of the source, which are not always exact repeats. Equal values may be shown once. Read-outs that look alike come from different tables or passages of the source.

What was measured:
[1] = molecular target: T1, KOP (Homo sapiens, UniProt P41145); assay type: cell-based
[2] = molecular target: T2, MOP (Homo sapiens, UniProt P35372); assay: cAMP inhibition assay; assay type: cell-based; conditions: N = 3
[3] = molecular target: T2, MOP; assay: Bias factor towards G protein in MOP; assay type: cell-based; conditions: GTPγ[35S] vs BRET arrestin recruitment; DAMGO as reference agonist
[4] = molecular target: T3, KOP wt (Homo sapiens, UniProt P41145); conditions: N = 3
[5] = molecular target: T2, MOP; conditions: N = 3
[6] = molecular target: T1, KOP; assay type: cell-based; remark: listed apart in the source
[7] = molecular target: T3, KOP wt; assay: cell-based
[8] = molecular target: T2, MOP; assay: cell-based
[9] = molecular target: T1, KOP; assay: biochemical
[10] = molecular target: T2, MOP; assay: biochemical
[11] = molecular target: T1, KOP
[12] = molecular target: T2, MOP
[13] = tested on: KOP; assay: Radioligand; assay type: binding, human; conditions: agonist U69,593; KOP+Nb39 vs KOP only
[14] = molecular target: human kappa-opioid receptor (KOP) containing C-terminal Renilla luciferase (RLuc8) (human, UniProt P41145); assay: FRET or BRET
Chain of human kappa-opioid receptor (KOP) containing C-terminal Renilla luciferase (RLuc8) (P41145 whole entry): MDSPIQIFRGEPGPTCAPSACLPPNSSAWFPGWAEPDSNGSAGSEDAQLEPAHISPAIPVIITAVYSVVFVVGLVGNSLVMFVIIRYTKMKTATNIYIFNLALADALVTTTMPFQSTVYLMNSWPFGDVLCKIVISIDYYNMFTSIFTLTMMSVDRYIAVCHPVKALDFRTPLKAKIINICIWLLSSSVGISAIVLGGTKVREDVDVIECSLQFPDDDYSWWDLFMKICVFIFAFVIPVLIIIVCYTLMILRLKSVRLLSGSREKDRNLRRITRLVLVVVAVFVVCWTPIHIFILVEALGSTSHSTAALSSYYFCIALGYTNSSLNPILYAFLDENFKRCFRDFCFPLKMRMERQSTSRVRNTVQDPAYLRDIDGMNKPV

T2 sequence (P35372 whole entry): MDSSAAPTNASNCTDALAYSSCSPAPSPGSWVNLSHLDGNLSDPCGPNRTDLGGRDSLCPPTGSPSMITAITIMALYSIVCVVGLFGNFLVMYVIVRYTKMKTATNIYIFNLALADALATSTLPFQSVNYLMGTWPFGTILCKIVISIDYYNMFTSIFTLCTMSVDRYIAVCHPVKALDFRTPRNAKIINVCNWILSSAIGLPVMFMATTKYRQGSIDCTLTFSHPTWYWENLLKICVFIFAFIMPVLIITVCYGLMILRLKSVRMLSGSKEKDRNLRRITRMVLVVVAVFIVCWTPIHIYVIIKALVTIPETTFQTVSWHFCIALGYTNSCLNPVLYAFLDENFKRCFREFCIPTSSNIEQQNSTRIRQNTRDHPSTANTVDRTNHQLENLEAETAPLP
T1 sequence (P41145 whole entry): as the sequence (P41145 whole entry) above
T3 sequence (P41145 whole entry): as above

O=C(N[C@@H]1CC[C@@]2(O)[C@H]3Cc4ccc(O)c5c4[C@@]2(CCN3CC2CC2)[C@H]1O5)c1cccc(I)c1 [IBNtxA]
Emax Gi activation (cAMP inhibition) in KOP [1]: 96±1 | EC50 ([1]; read-out: EC50 Gi activation (cAMP inhibition) in KOP): 0.002 ± 0.001 nM | Emax Gi activation (cAMP inhibition) in MOP [2]: 99±6 | EC50 ([2]; read-out: EC50 Gi activation (cAMP inhibition) in MOP): 0.056 ± 0.012 nM | Bias factor towards G protein in MOP, 10^ΔΔLog(τ/KA) [3]: 9 | Emax arrestin recruitment in KOP wt, Figure 5D ([4]; Figure 5D, comparison with Y312^7.35W): 112±10 | Emax arrestin recruitment (Tango) in KOP wt ([4]; method: normalized to % SalA stimulation): 95±8 and 113±12 | EC50 ([4]; read-out: EC50 arrestin recruitment (Tango) in KOP wt): 0.032 ± 0.01 nM | Emax arrestin recruitment (Tango) in MOP [5]: 25±6 and 23±4 | EC50 ([5]; read-out: EC50 arrestin recruitment (Tango) in MOP): 0.075 nM and 0.1 nM

CC(C)[C@@H](CN1CC[C@@](C)(c2cccc(O)c2)[C@@H](C)C1)NC(=O)[C@H]1Cc2ccc(O)cc2CN1 [JDTic]
Nb39 recruitment to KOP (in words) [6]: no effect

C=CCN1CC[C@]23c4c5ccc(O)c4OC2[C@H](NC(=O)c2ccc(F)c(I)c2)CC[C@@]3(O)C1C5 (stereo partly drawn) [MP903, N-((4aS,7R,12bS)-3-allyl-4a,9-dihydroxy-2,3,4,4a,5,6,7,7a-octahydro-1H-4,12-methanobenzofuro[3,2-e]isoquinolin-7-yl)-4-fluoro-3-iodobenzamide]
EC50 [7]: 0.074 ± 0.012 nM | Emax ([7]; read-out: Emax arrestin recruitment (Tango) in KOP wt): 108 ± 10% | EC50 [8]: 0.12 ± 0.05 nM | Emax ([8]; read-out: Emax arrestin recruitment (Tango) in MOP): 33 ± 5%

O=C(N[C@@H]1C=CC2C3Cc4ccc(O)c5c4[C@@]2(CCN3CC2CC2)C1O5)c1ccccc1 (stereo partly drawn) [MP1108, N-((7R,12bS)-3-(cyclopropylmethyl)-9-hydroxy-2,3,4,4a,7,7a-hexahydro-1H-4,12-methanobenzofuro[3,2-e]isoquinolin-7-yl)benzamide]
Ki [9]: 0.42 ± 0.05 nM | Ki [10]: 0.42 ± 0.06 nM

O=C(N[C@@H]1C=CC2C3Cc4ccc(O)c5c4[C@@]2(CCN3CC2CC2)C1O5)c1cccc(Cl)c1 (stereo partly drawn) [MP1109, 3-Chloro-N-((7R,12bS)-3-(cyclopropylmethyl)-9-hydroxy-2,3,4,4a,7,7a-hexahydro-1H-4,12-methanobenzofuro[3,2-e]isoquinolin-7-yl)benzamide]
Ki [9]: 0.13 ± 0.03 nM | Ki [10]: 0.16 ± 0.05 nM

O=C(N[C@@H]1C=CC2C3Cc4ccc(O)c5c4[C@@]2(CCN3CC2CC2)C1O5)c1cccc(Br)c1 (stereo partly drawn) [MP1110, 3-Bromo-N-((7R,12bS)-3-(cyclopropylmethyl)-9-hydroxy-2,3,4,4a,7,7a-hexahydro-1H-4,12-methanobenzofuro[3,2-e]isoquinolin-7-yl)benzamide]
Ki [9]: 0.12 ± 0.04 nM | Ki [10]: 0.18 ± 0.04 nM

O=C(N[C@@H]1C=CC2C3Cc4ccc(O)c5c4[C@@]2(CCN3CC2CC2)C1O5)c1ccccc1I (stereo partly drawn) [MP1111, N-((7R,12bS)-3-(cyclopropylmethyl)-9-hydroxy-2,3,4,4a,7,7a-hexahydro-1H-4,12-methanobenzofuro[3,2-e]isoquinolin-7-yl)-2-iodobenzamide]
Ki [9]: 0.27 ± 0.06 nM | Ki [10]: 0.2 ± 0.05 nM

O=C(N[C@@H]1C=CC2C3Cc4ccc(O)c5c4[C@@]2(CCN3CC2CC2)C1O5)c1ccc(I)cc1 (stereo partly drawn) [MP1112, N-((7R,12bS)-3-(cyclopropylmethyl)-9-hydroxy-2,3,4,4a,7,7a-hexahydro-1H-4,12-methanobenzofuro[3,2-e]isoquinolin-7-yl)-4-iodobenzamide]
Ki [9]: 0.12 ± 0.03 nM | Ki [10]: 0.17 ± 0.03 nM

O=C(N[C@@H]1C=CC2C3Cc4ccc(O)c5c4[C@@]2(CCN3CC2CC2)C1O5)c1cccc(C(F)(F)F)c1 (stereo partly drawn) [MP1113, N-((7R,12bS)-3-(cyclopropylmethyl)-9-hydroxy-2,3,4,4a,7,7a-hexahydro-1H-4,12-methanobenzofuro[3,2-e]isoquinolin-7-yl)-3-(trifluoromethyl)benzamide]
Ki [9]: 0.14 ± 0.07 nM | Ki [10]: 0.24 ± 0.06 nM

O=C(N[C@@H]1C=CC2C3Cc4ccc(O)c5c4[C@@]2(CCN3CC2CC2)C1O5)c1cccc(F)c1 (stereo partly drawn) [MP1114, N-((7R,12bS)-3-(cyclopropylmethyl)-9-hydroxy-2,3,4,4a,7,7a-hexahydro-1H-4,12-methanobenzofuro[3,2-e]isoquinolin-7-yl)-3-fluorobenzamide]
Ki [9]: 0.16 ± 0.07 nM | Ki [10]: 0.27 ± 0.08 nM

Cc1cccc(C(=O)N[C@@H]2C=CC3C4Cc5ccc(O)c6c5[C@@]3(CCN4CC3CC3)C2O6)c1 (stereo partly drawn) [MP1115, N-((7R,12bS)-3-(cyclopropylmethyl)-9-hydroxy-2,3,4,4a,7,7a-hexahydro-1H-4,12-methanobenzofuro[3,2-e]isoquinolin-7-yl)-3-methylbenzamide]
Ki [9]: 0.18 ± 0.08 nM | Ki [10]: 0.25 ± 0.06 nM

CN(C(=O)/C=C/c1ccoc1)[C@@H]1CC[C@@]2(O)[C@H]3Cc4ccc(O)c5c4[C@@]2(CCN3CC2CC2)[C@H]1O5 [Nalfurafine, reference compound]
Ki [10]: 4.2 ± 0.21 nM

CN(C(=O)/C=C/c1ccoc1)[C@@H]1CC[C@@]2(O)[C@H]3Cc4cccc5c4[C@@]2(CCN3CC2CC2)[C@H]1O5 [compound 18]
Ki [11]: 1.5 ± 0.05 nM | Ki [12]: 533 ± 65 nM

B1: Nb39 containing a C-terminal YFP (VHH)
VHH: QVQLVESGGGLVRPGGSLRLSCVDSERTSYPMGWFRRAPGKEREFVASITWSGIDPTYADSVADRFTTSRDVANNTLYLQMNSLKHEDTAVYYCAARAPVGQSSSPYDYDYWGQGTQVTVSS
Attenuation of agonist dissociation rate at KOP [13]: approximately 6 fold | EC50 of the agonist MP1104 for recruitment of Nb39 to KOP (BRET) [14]: 0.12 ± 0.02 nM | EC50 of the agonist SalA for recruitment of Nb39 to KOP (BRET) [14]: 11.3 nM and 11.2 nM and 10.2 nM | EC50 of the agonist U69,593 for recruitment of Nb39 to KOP (BRET) [14]: 3.78 ± 0.04 nM | EC50 of the partial agonist diprenorphine for recruitment of Nb39 to KOP (BRET) [14]: 5.2 ± 0.03 nM
